Series [1] has as its target T1, α-Chymotrypsin (EC 3.4.21.1) from bovine pancreas, immobilized on thioester-derivatized glass beads (20.2 mg/g) (Bos taurus, UniProt P00766).
T1 construct: purchased Miles Laboratories or Sigma Chemical Co; host or cells: bovine pancreas
In words: Hydrolysis of BzTyrOEt by α-chymotrypsin immobilized on thioester-glass beads (20.2 mg/g). It counts as biochemical. The settings on record: substrate BzTyrOEt; immobilized (20.2 mg/g). Also on record: unit not given here. As for the experimental part:
(§1) α-Chymotrypsin (EC 3.4.21.1) from bovine pancreas was obtained as a lyophilized powder from Miles Laboratories or Sigma Chemical Co. and used without further purification. All chemicals used were reagent grade or better.
(§2) Succinamidopropyl-derivatized glass was converted to the acyl chloride derivative by treatment with anhydrous thionyl chloride. Care was taken to prevent the introduction of water in each of these reaction steps. The reacion mixture was held at 70° C. for 1 hour. The solution was then cooled to 25° C., and excess thionyl chloride was drained from the beads, which were then rinsed thoroughly with dry dichloromethane. The beads were next covered with anhydrous 3-mercaptopropionic acid and again held at 70° C. for 1 hour. Following reaction, the excess acid was drained, and the derivatized beads were again washed with dichloromethane. […]
(§3) Hydrolysis of benzoly-L-tyrosine ethyl ester (BzTyrOEt) by α-chymotrypsin was assayed according to the method of Hummel, B. C. […] Reaction was initiated by addition of soluble enzyme to the reaction mixture, and reaction progress was monitored spectrophotometrically at 256 nm. […] Initial slopes were read directly from the recorder chart and kinetic constants were evaluated using a computer program to fit data directly to velocity versus substrate concentration curves.

Series [2] deals with T2, α-Chymotrypsin (EC 3.4.21.1) from bovine pancreas, immobilized on thioester-derivatized glass beads (9.5 mg/g) (Bos taurus, UniProt P00766).
T2 construct: purchased Miles Laboratories or Sigma Chemical Co; host or cells: bovine pancreas
Nature of the series: Hydrolysis of BzTyrOEt by α-chymotrypsin immobilized on thioester-glass beads (9.5 mg/g, after brief hydroxylamine treatment). It counts as biochemical. More on the design: unit not given here. The note with it: substrate BzTyrOEt; immobilized (9.5 mg/g). As for the experimental part: as §1, §2, §3

Series [3] relates to CCOC(=O)[C@H](Cc1ccc(O)cc1)NC(=O)c1ccccc1. In words: purified protein, by the assay type. The settings on record: other: substrate BzTyrOEt.

With `CCOC(=O)[C@H](Cc1ccc(O)cc1)NC(=O)c1ccccc1` [BzTyrOEt, benzoly-L-tyrosine ethyl ester], the entries for the “kcat /Km (app)” value in series [1] and in series [2] were 0.9 and 1.0, respectively. As for “α-Chymotrypsin (EC 3.4.21.1) from bovine pancreas, native soluble enzyme before immobilization (Bos taurus)”, in series [3] (soluble enzyme before immobilization), the Km turned out to be 2.74 mM. For “α-Chymotrypsin (EC 3.4.21.1) from bovine pancreas, soluble enzyme released by hydroxylamine (thioacylated, about three chains per molecule) (Bos taurus)”, the Km in series [3] (soluble enzyme released by hydroxylamine, pH 7.0) is 3.35 mM.

Values taken from US4284553A, “Reversible method for covalent immobilization of biochemicals” (North Carolina State University at Raleigh, priority 1980, dated 1981).
